Results taken from patent US20240343855A1, “PROCESS FOR THE PREPARATION OF POLYCARBODIIMIDES WITH AZIRIDINE FUNCTIONS, WHICH MAY BE USED AS CROSSLINKING AGENT” (Stahl International B.V., priority 2021, published 2024).

What was measured:
Rtkn-GFP reporter = format: cell-based, mouse; settings: 24 h exposure; in absence and presence of S9
Description: (§1) The genotoxicity can be measured by the ToxTracker® assay (Toxys, Leiden, The Netherlands) as further described herein. The ToxTracker® assay can be applied for pure substances or for compositions. The ToxTracker assay is a panel of six validated GFP-based mouse embryonic stem (mES) reporter cell lines that can be used to identify the biological reactivity and potential carcinogenic properties of newly developed compounds in a single test. ToxTracker is a mammalian stem cell-based assay that monitors activation of specific cellular signalling pathways for detection of the biological reactivity of compounds. In contrast to the cancer-derived cell lines that are currently used for in vitro genotoxicity testing, stem cells are genetically stable and proficient in all cellular pathways required for accurate detection of potentially carcinogenic properties of compounds. Extensive whole-genome transcription profiling has led to identification of a panel of biomarker genes that are preferentially activated upon exposure to different classes of carcinogens and toxicants. […] A compound is considered not genotoxic when it induces a smaller than 2-fold increase in GFP expression in any of the reporters measured by the ToxTracker® assay (Toxys, Leiden, The Netherlands).
(§2) The genotoxicity was measured by the ToxTracker® assay (Toxys, Leiden, The Netherlands), which can be applied for pure substances or for compositions. […]
(§3) The six independent mES reporter cell lines were seeded in gelatin-coated 96-well cell culture plates in 200 μl mES cell medium (50.000 cells per well). […] Induction of the GFP reporters was determined after 24 h exposure using a flow cytometer. Only GFP expression in intact single cells was determined. Mean GFP fluorescence was measured and used to calculate GFP reporter induction compared to a vehicle control treatment. Cytotoxicity was estimated by cell count after 24 h exposure using a flow cytometer and was expressed as percentage of intact cells after 24 h exposure compared to vehicle exposed controls. […]

Btg2-GFP reporter = format: cell-based, mouse; settings: 24 h exposure; in absence and presence of S9
Description: as §1, §2, §3

Bscl2-GFP reporter = format: cell-based, mouse; settings: 24 h exposure; in absence and presence of S9
Description: as §1, §2, §3

[1] = system: GFP-based mouse embryonic stem (mES) reporter cell lines; settings: ToxTracker; positive = at least 2 fold increase in GFP expression in any reporter
Description: The genotoxicity can be measured by the ToxTracker® assay (Toxys, Leiden, The Netherlands) as further described herein. The ToxTracker® assay can be applied for pure substances or for compositions. The ToxTracker assay is a panel of six validated GFP-based mouse embryonic stem (mES) reporter cell lines that can be used to identify the biological reactivity and potential carcinogenic properties of newly developed compounds in a single test. ToxTracker is a mammalian stem cell-based assay that monitors activation of specific cellular signalling pathways for detection of the biological reactivity of compounds. […] A compound is considered not genotoxic when it induces a smaller than 2-fold increase in GFP expression in any of the reporters measured by the ToxTracker® assay (Toxys, Leiden, The Netherlands).
as §2
as §3, with “treatment.” for “treatment. Cytotoxicity was estimated by cell count after 24 h exposure using a flow cytometer and was expressed as percentage of intact cells after 24 h exposure compared to vehicle exposed controls.”

## O=C(CCN1CC1)OCC(CO)(COC(=O)CCN1CC1)COC(=O)CCN1CC1 [CL-427, 1-Aziridinepropanoic acid, 1,1′-[2-[[3-(1-aziridinyl)-1-oxopropoxy]methyl]-2-(hydroxymethyl)-1,3-propanediyl]ester]
Rtkn-GFP reporter
  activation of the Rtkn-GFP reporter: activated
Btg2-GFP reporter
  activation of the Btg2-GFP reporter: activated
Bscl2-GFP reporter
  activation of the Bscl2-GFP reporter: activated
[1]
  genotoxicity conclusion: considered genotoxic
